Literature values as cited in PMC8068036, “Synthesis of New Biscoumarin Derivatives, In Vitro Cholinesterase Inhibition, Molecular Modelling and Antiproliferative Effect in A549 Human Lung Carcinoma Cells” (International Journal of Molecular Sciences, 2021).

How the values were obtained:
[1] = system: hAChE; set-up: method as in PMID 25812965, PMID 27744252, PMID 10213168; details: Figure 2; cited from earlier work
[2] = system: rat brain AChE; set-up: method as in PMID 10213168; details: cited from earlier work
[3] = system: BChE; set-up: method as in PMID 25812965, PMID 27744252, PMID 10213168; details: Figure 2; cited from earlier work
[4] = system: AChE; set-up: method as in PMID 25812965, PMID 27744252, PMID 10213168; details: Figure 2; cited from earlier work
[5] = system: hMAO-B; set-up: method as in PMID 25812965, PMID 27744252, PMID 10213168; details: printed in Figure 2, quantity not named; cited from earlier work

Compound: Cc1c(C)c2ccc(OCCN3CCN(CCNc4c5c(nc6ccccc46)CCCC5)CC3)cc2oc1=O [compound 6]
- IC50 [1]: 16.1 nM

Compound: COc1cc2oc(=O)c(C)c(C)c2cc1OCCCN1CCN(c2ccccc2OC)CC1 [KA-672, ensaculin]
- IC50 [2]: 360 nM

Compound: Cc1c(N=O)c(=O)oc2cc(CCCN3CCC(Cc4ccccc4)CC3)ccc12 [compound 7]
- IC50 [3]: 980 nM
- IC50 [4]: 300 nM
- IC50 [5]: 5900 nM
